# Measured values published in patent publication US10174307B2, “Performance enhancing genetic variants of E. coli” (priority 2014, dated 2019).
# Tested on: E. coli
# Assay: Erythromycin MIC quoted in legend of growth assay with and without erythromycin
# Format: cell-based
# Conditions: Escherichia coli
# Method: E. coli MG1655 was used as wild-type. The ALE selected rpoBE564V and rpoBE672K knock in strains were previously constructed by allelic replacement^7. To generate additional variants of […] and 672 positions, MAGE was performed on the wild-type strain by first transformation of recombineering plasmid pKD46^46, then inactivation of mutS with two nonsense mutations at residues 189 and 191 using an oligo (mutS_MUT). […] To perform each cycle of MAGE, the 1-Red system was induced with 0.5%-arabinose 45 minutes prior to generation of electrocompetent cells and oligo. Batch cultures were done in flask with M9 minimal media and 4 g/L of glucose at 37° C. or LB rich media. Glucose limited chemostats were carried out in a Bioflo 110 fermentor (New Brunswick Scientific, NJ). Glucose supplemented M9 was added to the reactor at 0.31 and 0.44 h^−1 dilution rates controlled by a peristaltic pump. Steady state was achieved after 3-5 residence times and was verified by biomass measurements. Phenotypic tests were performed by inoculation of media with an overnight pre-culture of glucose M9 media for all cases. Erythromycin was added to the media to the indicated concentration. The pH of M9 was adjusted to the indicated value with 6M HCl. Different substrates and mixtures were added to M9 to test growth in the indicated conditions. […]
smiles,measurement,value
CC[C@H]1OC(=O)[C@H](C)[C@@H](O[C@H]2C[C@@](C)(OC)[C@@H](O)[C@H](C)O2)[C@H](C)[C@@H](O[C@@H]2O[C@H](C)C[C@H](N(C)C)[C@H]2O)[C@](C)(O)C[C@@H](C)C(=O)[C@H](C)[C@@H](O)[C@]1(C)O [erythromycin],MIC,512 to 1020 µg/mL
